Reference: patent publication US20220313698A1, “MODULATORS OF CYSTIC FIBROSIS TRANSMEMBRANE CONDUCTANCE REGULATOR” (Vertex Pharmaceuticals Incorporated, priority 2019, published 2022)

Molecular target: CFTR-mediated chloride transport (Homo sapiens, UniProt P13569)
Test: Corrector Assay A - membrane potential dye assay (enteroid cells)
Conditions: for Corrector Assay A % activity: % of chloride transport of triple combination control (1 μM (14S)-dispiro macrocycle + 3 μM tezacaftor + 300 nM ivacaftor); for EC50: read-out: Corrector Assay A EC50, human intestinal enteroid cells, 18-24 h incubation, acute 10 μM forskolin + 300 nM ivacaftor

| Corrector Assay A % activity | EC50 | Structure (SMILES) |
| --- | --- | --- |
| +++ (+++ is >60%) | < 1 µM | CC(C)(C)c1ccc2c(n1)N1C[C@@H](CCC(c3ccc(C4CCOCC4)cn3)Nc3cccc(n3)S(=O)(=O)NC2=O)CC1(C)C (single isomer, unassigned) [Compound 155] |
| ++ (++ is 30-60%) | > 3 µM | CC(C)(C)c1ccc2c(n1)N1C[C@@H](CCC(C(=O)NC3CC4(CCNCC4)C3)Nc3cccc(n3)S(=O)(=O)NC2=O)CC1(C)C (single isomer, unassigned) [Compound 222] |
| + (+ is <30%) | < 1 µM | CC(C)(C)c1ccc2c(n1)N1C[C@@H](CC[C@@H](c3cccc(C4=CCOCC4)n3)Nc3cccc(n3)S(=O)(=O)NC2=O)CC1(C)C [Compound 149] |
| ++ (++ is 30-60%) | < 1 µM | CC(C)(C)c1ccc2c(n1)N1C[C@@H](CCC(c3ccc(CCC#N)cn3)Nc3cccc(n3)S(=O)(=O)NC2=O)CC1(C)C (single isomer, unassigned) [Compound 145] |
| ++ (++ is 30-60%) | < 1 µM | CC(C)(C)c1ccc2c(n1)N1C[C@@H](CCC(c3ccc(C4=CCOCC4)cn3)Nc3cccc(n3)S(=O)(=O)NC2=O)CC1(C)C (some centres unmarked) [Compound 167] |
| ++ (++ is 30-60%) | < 1 µM | COC(=O)NCc1ccnc(C2CC[C@@H]3CN(c4nc(C(C)(C)C)ccc4C(=O)NS(=O)(=O)c4cccc(n4)N2)C(C)(C)C3)c1 (single isomer, unassigned) [Compound 108] |
| +++ (+++ is >60%) | < 1 µM | CC(C)(C)c1ccnc(C2CC[C@@H]3CN(c4nc(C(C)(C)C)ncc4C(=O)NS(=O)(=O)c4cccc(n4)N2)C(C)(C)C3)c1 (single isomer, unassigned) [Compound 2] |
| +++ (+++ is >60%) | < 1 µM | CC(C)(C)c1ccc2c(n1)N1C[C@@H](CCC(c3ccc(Cl)cn3)Nc3cccc(n3)S(=O)(=O)NC2=O)CC1(C)C (single isomer, unassigned) [Compound 208] |
| +++ (+++ is >60%) | < 1 µM | CC1(C)C[C@@H]2CC[C@H](c3ccccn3)Nc3cccc(n3)S(=O)(=O)NC(=O)c3ccc(C4CC4)nc3N1C2 [Compound 349] |
| +++ (+++ is >60%) | < 1 µM | CC(C)(C)CCc1ccc2c(n1)N1C[C@@H](CC[C@H](c3ccccn3)Nc3cccc(n3)S(=O)(=O)NC2=O)CC1(C)C [Compound 105, (14S,17R)-8-(3,3-dimethylbutyl)-12,12-dimethyl-17-(pyridin-2-yl)-2λ^6-thia-3,9,11,18,23-pentaazatetracyclo[17.3.1.111,14.05,10]tetracosa-1(22),5,7,9,19(23),20-hexaene-2,2,4-trione] |
| +++ (+++ is >60%) | < 1 µM | CC(C)(C)c1ccc2c(n1)N1C[C@@H](CCC(c3ccc(C4=CCOCC4)cn3)Nc3cccc(n3)S(=O)(=O)NC2=O)CC1(C)C (some centres unmarked) [Compound 168] |
| ++ (++ is 30-60%) | < 1 µM | Cn1nccc1C1CC[C@@H]2CN(c3nc(C(C)(C)C)ccc3C(=O)NS(=O)(=O)c3cccc(n3)N1)C(C)(C)C2 (single isomer, unassigned) [Compound 284] |
| ++ (++ is 30-60%) | < 1 µM | CC(C)(C)c1ccc2c(n1)N1C[C@@H](CC[C@H](c3cccc(C(F)(F)F)n3)Nc3cccc(n3)S(=O)(=O)NC2=O)CC1(C)C (single isomer, unassigned) [Compound 94] |
| +++ (+++ is >60%) | < 1 µM | CC(C)(C)c1ccc2c(n1)N1C[C@@H](CCC(c3ccc(C4COC4)cn3)Nc3cccc(n3)S(=O)(=O)NC2=O)CC1(C)C (stereo partly drawn) [Compound 29, (14S)-8-tert-butyl-12,12-dimethyl-17-[5-(oxetan-3-yl)pyridin-2-yl]-2λ^6-thia-3,9,11,18,23-pentaazatetracyclo[17.3.1.111,14.05,10]tetracosa-1(23),5(10),6,8,19,21-hexaene-2,2,4-trione] |
| +++ (+++ is >60%) | > 3 µM | CC1(C)C[C@@H]2CC[C@H](c3ccccn3)Nc3cccc(n3)S(=O)(=O)NC(=O)c3ccc(C#N)nc3N1C2 [Compound 193, (14S,17R)-12,12-dimethyl-2,2,4-trioxo-17-(pyridin-2-yl)-2λ^6-thia-3,9,11,18,23-pentaazatetracyclo[17.3.1.111,14.05,10]tetracosa-1(22),5,7,9,19(23),20-hexaene-8-carbonitrile] |
| ++ (++ is 30-60%) | < 1 µM | CC(C)(C)c1ccc2c(n1)N1C[C@@H](CCC(c3ccc(CCN)cn3)Nc3cccc(n3)S(=O)(=O)NC2=O)CC1(C)C (some centres unmarked) [Compound 113] |
| +++ (+++ is >60%) | < 1 µM | CC(C)(C)c1ccc2c(n1)N1C[C@@H](CCC(CC(O)CO)Nc3cccc(n3)S(=O)(=O)NC2=O)CC1(C)C (single isomer, unassigned) [Compound 32] |
| ++ (++ is 30-60%) | < 1 µM | CC(C)(C)c1ccc2c(n1)N1C[C@@H](CC[C@@H](c3cc(-c4cn[nH]c4)ccn3)Nc3cccc(n3)S(=O)(=O)NC2=O)CC1(C)C (single isomer, unassigned) [Compound 69] |
| ++ (++ is 30-60%) | < 1 µM | CC(C)(C)c1ccc(C2CC[C@@H]3CN(c4nc(C(C)(C)C)ccc4C(=O)NS(=O)(=O)c4cccc(n4)N2)C(C)(C)C3)nc1 (single isomer, unassigned) [Compound 187] |
| +++ (+++ is >60%) | 1 to 3 µM | CC(C)(C)c1ccc2c(n1)N1C[C@@H](CCC(CCCC(=O)O)Nc3cccc(n3)S(=O)(=O)NC2=O)CC1(C)C (stereo partly drawn) [Compound 19, 4-[(14S)-8-tert-Butyl-12,12-dimethyl-2,2,4-trioxo-2λ^6-thia-3,9,11,18,23-pentaazatetracyclo[17.3.1.111,14.05,10]tetracosa-1(23),5(10),6,8,19,21-hexaen-17-yl]butanoic acid] |
| +++ (+++ is >60%) | < 1 µM | CC1(C)CC2CCC(c3ccccn3)Nc3cccc(n3)S(=O)(=O)NC(=O)c3ccc(-n4ccc(OCCC5C6(CC6)C56CC6)n4)nc3N1C2 [Compound 356, (14S)-8-13-(2-{dispiro[2.0.2.11heptan-7-yl}ethoxy)-1H-pyrazol-1-yl]-12,12-dimethyl-17-(pyridin-2-yl)-2λ^6-thia-3,9,11,18,23-pentaazatetracyclo[17.3.1.111,14.05,10]tetracosa-1(22),5,7,9,19(23),20-hexaene-2,2,4-trione] |
| + (+ is <30%) |  | CC(C)(C)c1ccc2c(n1)N1C[C@@H](CC[C@@H](C(=O)NC3CC4(CCNCC4)C3)Nc3cccc(n3)S(=O)(=O)NC2=O)CC1(C)C [Compound 223] |
| ++ (++ is 30-60%) | < 1 µM | CC(C)(C)c1ccc2c(n1)N1CC(CCCNc3cc(O)cc(n3)S(=O)(=O)NC2=O)CC1(C)C (single isomer, unassigned) [Compound 250, 8-tert-butyl-21-hydroxy-12,12-dimethyl-2λ^6-thia-3,9,11,18,23-pentaazatetracyclo[17.3.1.111,14.05,10]tetracosa-1(23),5,7,9,19,21-hexaene-2,2,4-trione] |
| +++ (+++ is >60%) | < 1 µM | COc1cccc(-c2ccc3c(n2)N2C[C@@H](CC[C@H](c4ccccn4)Nc4cccc(n4)S(=O)(=O)NC3=O)CC2(C)C)c1 [Compound 339] |
